Data from publication PMC11403612, “Preparation and Preclinical Characterization of a Simple Ester for Dual Exogenous Supply of Lactate and Beta-hydroxybutyrate” (Journal of Agricultural and Food Chemistry, 2024).

Experiments:
[1] = Hepatocyte stability of LaKe, human; format: in vitro ADME; settings: cryopreserved hepatocytes
[2] = Extended pharmacokinetics of LaKe in rats (LaKe, lactate, BHB plasma levels); format: in vivo, SD rats
Experimental: Animals (SD rats, both male and female, 7–9 weeks) were individually housed from 24 h before dosing until the end of the study. Food was withdrawn the night before initiation of study; following food withdrawal, animals were maintained on glucose water containing 5% w/v glucose and 1% saline to suppress endogenous ketone production throughout the study. Food was returned 8 h post-test article dosing. Animals were monitored for distress or notable changes in behavior during the study. The animals were euthanized by CO2 inhalation 2 h after the last sample collection time point.
Blood collection was performed by jugular vein cannulation of each animal and divided into two parts. About 10–15 μL of blood was used for the analysis of glucose by glucometer measurement. About 0.20 mL of blood was collected into prechilled commercial EDTA-K2 tubes containing 5 μL of the esterase inhibitor (100 mM PMSF in ethanol, 40 mg/mL NaF and 120 mg/mL […] in water = 5:95(v/v). All blood samples were placed on wet ice until centrifugation.
At least 100 μL plasma was collected respectively and transferred into polypropylene tubes with 400 mM TTFA (2-thenoyltrifluoroacetone) in ethanol (plasma:stabilizer = 100:5 (v:v)). The final concentration of TTFA in the plasma sample from each time point was approximately 20 mM. The samples were snap frozen over dry ice and kept at −60 °C or lower until LC-MS/MS analysis for 3-hydroxybutyl 2-hydroxypropanoate (LaKe), lactate, and β-hydroxybutyrate (BHB).
Calibration curves were constructed by linear regression of the peak area of the pure calibrant samples versus the nominal analyte concentrations and based on eight points. The Lac-Phe concentrations in rat plasma samples were derived from their peak area with reference to the calibration curve.
Extended pharmacokinetics of LaKe in rats – Detailed protocols for LC-MS/MS analyses 3-hydroxybutyl 2-hydroxypropanoate (LaKe): […]
3-hydroxybutyl 2-hydroxypropanoate (LaKe) was detected by SRM. […]

[3] = Microsomal stability of LaKe, human; format: in vitro ADME
Experimental: The in vitro stability of LaKe was evaluated following incubation in simulated gastric fluid (SGF), simulated intestinal fluid (SIF), fresh and frozen plasma (rats and humans, respectively), and the presence of hepatocytes (rats and humans) and liver microsomes (rats and humans). At the chosen time points, the mixtures were analyzed by LC-MS/MS to quantify the remaining LaKe and all assays included at least one control compound with known pharmacokinetic properties.
Hepatocyte stability of LaKe
Cells: Rat hepatocytes (BioreclamationIVT, M0005); Human hepatocytes (BioreclamationIVT, X008001) Thawing Medium: Williams’ Medium E containing 5% fetal bovine serum and 30% Percoll solution and other […]
Incubation Medium: Williams’ Medium E (no phenol red) containing 2 mM L-Glutamine and 25 mM HEPES.
Stop Solution: Acetonitrile containing 200 ng/mL tolbutamide and labetalol as internal standards.
Dilution Solution: Ultra-pure water.
Preparation of Quenching Plate: Transfer 125 μL of stop solution (acetonitrile containing 200 ng/mL tolbutamide and 200 ng/mL labetalol as internal standards) in a set of pre-labeled 96-well plates.
Cryopreserved cells were thawed, isolated and suspended in Incubation Medium, then diluted with pre-warmed Incubation Medium to 0.5 × 10^6 cells/mL. 198 μL of pre-warmed cell suspensions were added in 96-well plates. […]

What does the source list for `CC(O)CCOC(=O)C(C)O` (stereo not drawn) [LaKe, 3-hydroxybutyl 2-hydroxypropanoate]?
half-life at 0.1 mg/mL [1]: < 30 min; concentration at 15 min ([2]; both sexes, SD, rat, plasma, oral, 1.3 g/kg, the lower dose, 15 min): 540 nM; concentration at 30 min ([2]; both sexes, SD, rat, plasma, oral, 1.3 g/kg, the lower dose, 30 min): 260 nM; maximum average plasma level of LaKe ([2]; maximum dose of 12 g/kg): 5 µM; LaKe remaining ([3]; human liver microsomes, absence of NADPH, after 60 min): 82%; turnover in liver microsomes ([3]; presence of NADPH): underwent turnover
